Measurements published in PubChem BioAssay (NCI).
Where “and” joins values, the source holds several entries; their conditions need not be identical. Equal entries are not always repeated.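 These data come from cells grown in 96-well plates and exposed to compound for 48 hours at five concentrations. GI50 = concentration required for 50% inhibition of growth. TGI: total growth inhibition.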

Key:
Experiment in all cases: growth of human tumour cells (NCI), 48 h
A549 NSCLC = tested on: A549 NSCLC
EKVX NSCLC = tested on: EKVX NSCLC
HCC-2998 colon = tested on: HCC-2998 colon
HT29 colon = tested on: HT29 colon
MALME-3M melanoma = tested on: MALME-3M melanoma
OVCAR-8 ovarian = tested on: OVCAR-8 ovarian
RPMI-8226 leukemia = tested on: RPMI-8226 leukemia
RXF 393 renal = tested on: RXF 393 renal
SK-OV-3 ovarian = tested on: SK-OV-3 ovarian
SNB-19 CNS = tested on: SNB-19 CNS

SMILES | TGI (A549 NSCLC) | TGI (EKVX NSCLC) | TGI (HCC-2998 colon) | TGI (HT29 colon) | TGI (MALME-3M melanoma) | TGI (OVCAR-8 ovarian) | TGI (RPMI-8226 leukemia) | TGI (RXF 393 renal) | TGI (SK-OV-3 ovarian) | TGI (SNB-19 CNS) | GI50 (A549 NSCLC) | GI50 (EKVX NSCLC) | GI50 (HCC-2998 colon) | GI50 (HT29 colon) | GI50 (MALME-3M melanoma) | GI50 (OVCAR-8 ovarian) | GI50 (RPMI-8226 leukemia) | GI50 (RXF 393 renal) | GI50 (SK-OV-3 ovarian) | GI50 (SNB-19 CNS)
Cn1c(=O)nc2n(-c3ccc(Cl)c(C(F)(F)F)c3)c3ccccc3nc-2c1=O | > 86.3 µM | > 83.9 µM | 80.8 µM | 64.8 µM | 34.7 µM | 83.1 µM | > 100 µM | > 100 µM | > 100 µM | 63.1 µM |  |  |  |  |  |  |  |  |  | 
COc1ccc(C2=C(N3CCc4ccccc43)C(=O)NC2=O)cc1 | > 25 µM | > 25 µM | > 25 µM | > 25 µM | > 25 µM | > 25 µM | > 25 µM | > 25 µM | > 25 µM | > 25 µM | > 25 µM | > 24 µM | > 25 µM | > 25 µM | > 25 µM | > 25 µM | > 22.9 µM | > 25 µM | > 25 µM | > 25 µM
O=C(CC1(O)C(=O)Nc2c(Cl)ccc(Cl)c21)c1ccc(Cl)cc1Cl (stereo not given) | 47.2 µM | 44 µM | 32.2 µM | 33.3 µM | 34.9 µM | 41.6 µM | 43.7 µM | 42.3 µM | 46.6 µM | > 100 µM |  |  |  |  |  |  |  |  |  | 
COc1cccc(COc2cc(-n3cnc4ccccc43)sc2C(N)=O)c1 | > 25 µM | > 25 µM | > 25 µM | > 25 µM | > 25 µM | > 25 µM | > 25 µM | > 25 µM | > 25 µM | > 25 µM | > 21.7 µM | > 25 µM | > 25 µM | 2.03 µM | > 25 µM | 11.9 µM | > 25 µM | 5.69 µM | > 16.2 µM | 14.4 µM
CCOc1ccc(Nc2c3ccccc3nc3ccccc23)cc1 | 9.63 µM and 12.5 µM | 7.56 µM and 6.1 µM | 2.78 µM and 0.65 µM | 1.26 µM and 1.08 µM | 4.1 µM and 3.45 µM | 2.45 µM and 15 µM | 4.58 µM and 4.03 µM | 2.25 µM and 2.71 µM | 6.06 µM and 7.73 µM | 13.8 µM and 15.3 µM | 0.734 µM and 0.887 µM | 0.863 µM and 0.613 µM | 0.816 µM | 0.307 µM and 0.264 µM | 0.806 µM and 0.468 µM | 0.54 µM and 0.592 µM | 1.07 µM and 0.364 µM | 0.397 µM and 0.402 µM | 0.501 µM and 0.323 µM | 0.817 µM and 0.556 µM
C/C1=C\CC[C@@](C)(O)[C@@H]2C[C@H](CC/C(C)=C/CC1)C1(CC1)C(=O)O2 | > 100 µM | > 100 µM | 66.6 µM | > 100 µM | 64.8 µM | > 100 µM | 46.4 µM | > 100 µM | > 100 µM | > 100 µM | 42.8 µM | 45.4 µM | 30.4 µM | 31.4 µM | 21.6 µM | 61.5 µM | 20.3 µM | > 100 µM | 39 µM | 61.9 µM
COc1ccccc1NC(=O)/C(=C/c1ccccc1)C(C)=O | > 100 µM | > 100 µM | > 100 µM | > 100 µM | > 100 µM | > 100 µM | > 100 µM | 53.8 µM | > 100 µM | > 100 µM |  |  |  |  |  |  |  |  |  | 
Cc1cccc(N(CC(=O)O)S(=O)(=O)c2ccccc2)c1 | > 100 µM | > 100 µM | > 100 µM | > 100 µM | > 100 µM | > 100 µM | > 100 µM | > 100 µM | > 100 µM | > 100 µM |  |  |  |  |  |  |  |  |  | 
